Results as given in publication PMC12024912, “Druggability Studies of Benzene Sulfonamide Substituted Diarylamide (E3) as a Novel Diuretic” (Biomedicines, 2025).

Legend:
[1] = Blood stability, human; format: in vitro ADME; details: plasma, n=3
Protocol: (§1) Plasma from mice, rats, rabbits, and humans was obtained from blood after centrifugation at 3000 r/min for 10 min. Simulated gastric fluid (SGF, pH = 1, containing pepsin) and simulated intestinal fluid (SIF, pH = 6.8, containing trypsin) were configured previously in the experiments. SD rats and mice were collected, and after removing the mucus layer from the small intestine and colon, 20 times the volume of liquid bacterial culture medium was added. An intestinal microbiota suspension was obtained after anaerobic cultivation on a shaking table at 37 °C for 12 h. In the aforementioned systems, E3 was added at a final concentration of 1 μmol/L at 37 °C for different incubation times (0, 10, 20, 30, 60, 120, and 240 min). In liver metabolic stability assays, E3 was incubated with liver microsomes or liver homogenate from mice or rats for 60 min at 37 °C. The stop solution, 5 ng/mL tolbutamide (internal standard, IS) in acetonitrile, was added to stop the metabolic process. Post-centrifugation (18,000× g, 10 min, 4 °C), supernatants were subjected to liquid chromatography–tandem mass spectrometry (LC–MS/MS). Analyte-to-IS peak area ratios quantified residual percentages via Equation (2):Remaining% = (E3peak area/ISpeak area at different time)/(E3peak area/ISpeak area at 0 min) × 100%.(2)

[2] = Stability in simulated gastric fluid (SGF) and simulated intestinal fluid (SIF); format: in vitro ADME; details: 1 μmol/L; 37 °C; after 4 h
Protocol: as §1

[3] = biological target: T1, rat UT-A1 (Rattus norvegicus, UniProt Q62668); experiment: Transwell assay of UT-A1 inhibition in UT-A1-MDCK cells; format: cell-based; details: read-out: IC50 against UT-A1-mediated urea permeability
T1 construct: expressed in transfected cells
T1 sequence (Q62668 1-929): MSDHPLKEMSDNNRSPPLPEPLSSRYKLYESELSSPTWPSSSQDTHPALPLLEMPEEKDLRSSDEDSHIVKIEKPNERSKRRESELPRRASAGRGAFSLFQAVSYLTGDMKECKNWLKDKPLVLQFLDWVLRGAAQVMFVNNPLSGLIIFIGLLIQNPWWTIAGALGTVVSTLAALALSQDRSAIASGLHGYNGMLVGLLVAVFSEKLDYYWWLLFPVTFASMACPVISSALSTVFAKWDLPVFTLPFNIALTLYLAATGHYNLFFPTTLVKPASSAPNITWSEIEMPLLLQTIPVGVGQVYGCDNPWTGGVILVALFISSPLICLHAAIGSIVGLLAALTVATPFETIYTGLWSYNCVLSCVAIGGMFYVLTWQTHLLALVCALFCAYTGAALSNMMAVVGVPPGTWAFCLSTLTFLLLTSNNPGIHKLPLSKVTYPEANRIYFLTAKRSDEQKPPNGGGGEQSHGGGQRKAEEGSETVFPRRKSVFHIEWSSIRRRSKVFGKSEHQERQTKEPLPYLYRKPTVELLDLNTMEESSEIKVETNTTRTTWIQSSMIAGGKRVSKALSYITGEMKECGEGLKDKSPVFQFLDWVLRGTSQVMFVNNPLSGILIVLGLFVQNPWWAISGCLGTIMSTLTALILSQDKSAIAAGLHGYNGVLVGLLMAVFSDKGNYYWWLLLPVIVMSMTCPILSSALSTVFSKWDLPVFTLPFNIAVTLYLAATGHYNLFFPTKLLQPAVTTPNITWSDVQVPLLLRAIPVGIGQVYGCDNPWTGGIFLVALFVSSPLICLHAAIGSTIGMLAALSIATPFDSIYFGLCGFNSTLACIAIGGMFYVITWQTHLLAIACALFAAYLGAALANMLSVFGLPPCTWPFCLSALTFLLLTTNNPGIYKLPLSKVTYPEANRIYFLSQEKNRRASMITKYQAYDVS
Protocol: MDCK cells stably expressing rat UT-A1 or UT-B were cultured in DMEM supplemented with 10% FBS, and the mRNA levels of UT-A1 and UT-B were measured in our previous research. Urea flux was assessed according to previously established methods. MDCK cells (2 × 10^5 cells/cm^2) were grown on 12 mm collagen-coated Costar Transwell inserts (0.4 μm pore size, Corning) for 4 d at 37 °C in the presence of 5% CO2. Once the cells on the apical side formed a tight monolayer (transepithelial resistance 1 kΩ/cm^2), PBS (pH = 7.4, containing 10 μmol/L forskolin) with E3 or DMSO was added to the top (0.25 mL) and bottom (1 mL) compartments, and the cultures were incubated in the absence of urea for 30 min at 37 °C. As UT-B is located in the plasma membrane while UT-A1 resides in the cytoplasm, forskolin was used to stimulate the translocation of UT-A1 from the cytoplasm to the membrane for urea transport. Subsequently, the solution in the bottom compartment was replaced with PBS (pH 7.4, containing 10 μmol/L forskolin and E3 or DMSO) supplemented with 15 mmol/L urea. Apical fluid samples (5 μL) were collected at 0, 1, 3, 5, 10, 15, 20, 30, 40, 50, and 60 min. The samples were subjected to an assay for urea (Urea Colorimetric Assay Kit (Diacetyl Oxime Method), Elabscience, Wuhan, China) according to the kit procedure. Then, the inhibition rate was calculated as described previously.

[4] = Intestinal microbiota stability (colon and small intestine), rats and mice together; format: in vitro ADME, SD rats and mice; details: after 4 h
Protocol: as §1

CC(=O)c1ccc(C(=O)Nc2cccc(NS(=O)(=O)c3ccccc3)c2)o1 [Compound E3, 5-acetyl-N-(3-(phenylsulfonamido)phenyl)furan-2-carboxamide]
remaining at 1 μmol/L [1]: 54.1%
E3 remaining in SGF (pH 1.0) and SIF (pH 6.8) [2]: More than 90%
IC50 [3]: 18 nM
E3 remaining with intestinal microbiota (colon and small intestine) [4]: over 82%
